How the values were obtained:
Assay type in all cases: biochemical, Trichoderma atroviride
FgenL model RNA [1] = assay: TapeStation Assay, FgenL model RNA; design: Conc. FgenL#1 / Conc. FgenL#2: unit not given here; settings: for % Control N = 1 / % Control N = 2 / % Control Average: FgenL RNA, 20 mM amino acids, 50 mM CAPS pH 11, 50° C. 15 min; for % Control N = 1 / % Control N = 2: vs Time 0; for % Control Average: vs Time 0, Avg N=2; for Conc. FgenL#1 / Conc. FgenL#2: intact FgenL RNA after 15 min at 50° C.; for Conc. FgenL#1: 20 mM amino acids in 50 mM CAPS pH 11, run #1; for Conc. FgenL#2: 20 mM amino acids in 50 mM CAPS pH 11, run #2
Procedure: (§1) These assays were performed with amino acids and compared to a no-degradation baseline control to gauge degree of protection imparted by the amino acid. Multiple functional assay approaches were used where differing endpoints were measured including a droplet digital PCR (ddPCR) assay where intact RNA sequence was quantitated, a size exclusion base hydrolysis degradation assay that used a size exclusion column to determine the degree of degradation occurring to an mRNA construct, and finally, a TapeStation assay that utilizes capillary electrophoresis and optical detection to measure intact RNA. […] Affinity selection by mass spectrometry (ASMS), native electrospray ionization mass spectrometry (nESI-MS) and nuclear magnetic resonance (NMR) may be used as several complementary approaches to ascertain compound binding to RNA. The latter techniques utilize MS to measure mass of bound compound alone (ASMS), or mass of RNA and bound compound (nESI-MS). The nESI-MS and NMR studies may be conducted to provide direct analytical quantification of resulting complex via measurement of mass (nESI-MS) or chemical shifts (NMR). The ASMS experiment is conducted to determine saturation binding of the compound to RNA where resulting apparent binding constants (KD,App) may be generated. Further descriptions of the functional and binding assays are provided in the section below.
(§2) In principle, samples are loaded to the instrument where electrophoresis separates component RNA's on the basis of mass, and subsequently analyzes these optically as they travel through the capillary.
(§3) RNA samples were diluted to the appropriate concentration to fall within the linear range of detection for the RNA ScreenTape Assay. Model Chi18 or FgenL RNAs were diluted to 50 ng/μL in 50 mM CAPS buffer pH 11. Amino acid stocks were made up in 50 mM CAPS pH 11 and re-adjusted to >pH 11 after solubilization. […] The samples were aliquoted to PCR tubes for each time point (Time 0 or 15 minutes). Degradation reaction: Samples were incubated at 50° C. for 0 to 15 minutes in a thermocycler, removed at the appropriate time point and placed on ice. Time 0 samples remained on ice.

Chi18 model RNA [2] = assay: TapeStation Assay, Chi18 model RNA; design: Conc. chi18#1 / Conc. chi18#2: unit not given here; settings: for % Control N = 1 / % Control N = 2 / % Control Avg.: Chi18 RNA, 20 mM amino acids, 50 mM CAPS pH 11, 50° C. 15 min; for % Control N = 1 / % Control N = 2: vs Time 0; for % Control Avg.: vs Time 0, Avg N=2; for Conc. chi18#1 / Conc. chi18#2: intact Chi18 RNA after 15 min at 50° C.; for Conc. chi18#1: 20 mM amino acids in 50 mM CAPS pH 11, run #1; for Conc. chi18#2: 20 mM amino acids in 50 mM CAPS pH 11, run #2
Procedure: as §1, §2, §3

FgenL mRNA construct = assay: Size Exclusion Base Hydrolysis Degradation Assay, FgenL; settings: 25 mM amino acid; for T0 R1 peak area at 250 nm: FgenL 0.1 mg/mL, 50 mM CAPS, T=0, replicate 1; for T2 Avg, peak area as percentage of T=0 / T2 R1 peak area at 250 nm / T10 Avg, peak area as percentage of T=0 / T10 R1 peak area at 250 nm / T24 Avg, peak area as percentage of T=0 / T24 R1 peak area at 250 nm / T0 Avg, peak area as percentage of T=0: FgenL; for T2 Avg, peak area as percentage of T=0 / T2 R1 peak area at 250 nm / T10 Avg, peak area as percentage of T=0 / T10 R1 peak area at 250 nm / T24 Avg, peak area as percentage of T=0 / T24 R1 peak area at 250 nm: 50 mM CAPS pH 11, room temperature; for T2 Avg, peak area as percentage of T=0 / T2 R1 peak area at 250 nm: 2 hrs; for T2 R1 peak area at 250 nm / T10 R1 peak area at 250 nm / T24 R1 peak area at 250 nm: replicate 1; for T10 Avg, peak area as percentage of T=0 / T10 R1 peak area at 250 nm: 10 hrs; for T24 Avg, peak area as percentage of T=0 / T24 R1 peak area at 250 nm: 24 hrs; for T0 Avg, peak area as percentage of T=0: T=0 (reference)
Procedure: Basic assay procedure: RNA samples were diluted to 1.0 mg/mL in DNAase/RNAase free water. Amino acids were dissolved in water to a stock solution of 100 mM and a solution of 500 mM CAPS pH 11 was used. The two mRNA constructs tested were FgenL and Chi18. Each individual sample volume was 50 μL. To determine the amount of 1 M NaOH needed to adjust the final pH to 11.0 after the addition of all sample components, the sample volume was increased 100 fold (5 mL), the volume of 1 M NaOH recorded and this value was translated back down to the 50 μL sample volume.
The mRNA and amino acid were allowed to incubate for one hour prior to the addition of CAPS pH 11. All steps of the assay were conducted at room temperature.
Degradation reaction: After the CAPS addition, the samples were injected onto the Waters H-Class UPLC system to record the first timepoint, T=O. This resulting chromatogram was processed by integrating the area of absorbance at 250 nm for the mRNA construct. Immediately following this timepoint, the pH was adjusted to 11. Subsequent time points (2 hrs, 10 hrs, and 24 hrs) recorded the Absorbance Units (peak area) at 250 nm as a percentage of the peak area determined at T=O. Integration of the chromatogram for subsequent timepoints was conducted by analyzing the area of absorbance at 250 nm contained within the same time window in which the peak eluted in T=0 for the 100% intact mRNA.

Chi18 model RNA [3] = assay: Droplet Digital Polymerase Chain Reaction (ddPCR) Assay, Chi18; settings: percent protection, pH 11.0, 30° C., 16 hours, n = 2
Procedure: (§4) The ddPCR assays measure RNA integrity by converting intact RNA to cDNA by reverse transcription, then performing digital PCR in thousands of nanoliter-sized droplets for each sample. PCR is performed within each droplet, which allows for more sensitive detection of subtle changes in RNA concentration compared to traditional PCR or qPCR. Additionally, primers/probes specific to the 5′ end of the RNA/cDNA transcript(s) are used to assess fragment integrity—e.g. degraded RNA will have fewer 5′ positive droplets. The BioRad QX200 Droplet Digital PCR System was used for the ddPCR workflow.
(§5) Basic assay procedure: RNA samples (Chi18 or FgenL fragments) were diluted to 25 fg/μL or 10 fg/μL, respectively, in 50 mM […] buffer pH 11.0. Amino acid stocks were made up in 50 mM CAPS buffer, pH 11.0 and subsequently re-adjusted to pH 11.0, post solubilization. Amino acid stocks were tested in a dose-response format to determine EC50. An amino acid dilution plate containing a ˜300 mM (or appropriate) top-concentration of amino acid in 50 mM CAPS buffer was serially (half-log) diluted for 10 times. 0.6 μL of this compound dilution plate was spotted into a 96-well PCR plate (Thermo). Sample RNAs were added (6 μL) and incubated with test amino acid as described below.
(§6) Degradation reaction: Treated RNAs were incubated for 16 hours at 30° C. for Chi18 samples or 44° C. for FgenL samples. Upon completion of the degradation reaction, cDNA was made from the intact RNA by Reverse Transcription and ddPCR run for each sample (96 well plates). Positive 5′ droplet values were divided by the total accepted droplet values for each sample and a ratio value generated for each sample.
(§7) EC50 was determined by using a four parameter logistic equation: Y=A+((B−A)/(1+(C/X)D)); where Y is percent protection, X is compound concentration, A and B are minimum and maximum asymptotes, respectively, C is EC50, and D is Hill slope.

FgenL model RNA [4] = settings: percent protection, pH 11.0, 44° C., 16 hours, n = 2
Procedure: as §4, §5, §6, §7

| SMILES | % Control N = 1 (FgenL model RNA [1]) [%] | % Control N = 2 (FgenL model RNA [1]) [%] | % Control Average (FgenL model RNA [1]) [%] | Conc. FgenL#1 (FgenL model RNA [1]) | Conc. FgenL#2 (FgenL model RNA [1]) | % Control N = 1 (Chi18 model RNA [2]) [%] | % Control N = 2 (Chi18 model RNA [2]) [%] | % Control Avg. (Chi18 model RNA [2]) [%] | Conc. chi18#1 (Chi18 model RNA [2]) | Conc. chi18#2 (Chi18 model RNA [2]) | T0 R1 peak area at 250 nm (FgenL mRNA construct) | T2 Avg, peak area as percentage of T=0 (FgenL mRNA construct) [%] | T2 R1 peak area at 250 nm (FgenL mRNA construct) | T10 Avg, peak area as percentage of T=0 (FgenL mRNA construct) [%] | T10 R1 peak area at 250 nm (FgenL mRNA construct) | T24 Avg, peak area as percentage of T=0 (FgenL mRNA construct) [%] | T24 R1 peak area at 250 nm (FgenL mRNA construct) | T0 Avg, peak area as percentage of T=0 (FgenL mRNA construct) [%] | EC50 (Chi18 model RNA [3]) [mM] | EC50 (FgenL model RNA [4]) [mM] |
| --- | --- | --- | --- | --- | --- | --- | --- | --- | --- | --- | --- | --- | --- | --- | --- | --- | --- | --- | --- | --- |
| N[C@@H](CCC(=O)O)C(=O)O [Glutamic acid] | 89.9 | 76.1 | 83.0 | 31 | 26.4 | 76.0 | 94.5 | 85.3 | 40.5 | 50 | 14529 | 73.9 | 10330 | 39.7 | 8449 | 0.0 | 0 | 100.0 | 6.7 | 19 |
| O=C(O)[C@@H]1CCCN1 [Proline] | 21.8 | 20.3 | 21.0 | 7.52 | 7.03 | 37.0 | 34.6 | 35.8 | 19.7 | 18.3 | 17907 | 16.6 | 3380 | 0.0 | 0 | 0.0 | 0 | 100.0 | > 30 | > 30 |
| N[C@@H](Cc1ccc(O)cc1)C(=O)O [Tyrosine] | 33.9 | 21.9 | 27.9 | 11.7 | 7.59 | 31.9 | 31.9 | 31.9 | 17 | – | 22082 | 64.7 | 13039 | 15.0 | 1912 | 5.6 | 912 | 100.0 | > 30 | > 30 |
| N[C@@H](Cc1ccccc1)C(=O)O [Phenylalanine] | 13.8 | 6.9 | 10.4 | 4.76 | 2.4 | 17.2 | 25.3 | 21.3 | 9.19 | 13.4 | 18152 | 62.2 | 12662 | 1.7 | 605 | 0.0 | 0 | 100.0 | > 18 | > 30 |
| NC(=O)CC[C@H](N)C(=O)O [Glutamine] | 29.0 | 10.3 | 19.6 | 10 | 3.57 | 15.9 | 17.8 | 16.8 | 8.46 | 9.42 | 15510 | 25.9 | 5779 | 0.0 | 0 | 0.0 | 0 | 100.0 | 8.8 | > 30 |

Reference: US20240122865A1, “Methods of Protecting RNA” (Pfizer Inc., priority 2021, published 2024)
